For 10 molecules, IC50, Dmax and DC50 results are on record in US20260325654A1, “METHODS AND COMPOSITIONS FOR TARGETED PROTEIN DEGRADATION” (Ranok Therapeutics (Hangzhou) Co. Ltd., priority 2023, published 2026).

Assay [1] concerns AGS. Nature of the assay: CellTiter-Glo Reagent cancer cell line proliferation assay, AGS. The note with it: Homo sapiens, 24 h, KRAS(G12D) heterozygous. The format is cell-based, human. The procedure, abridged:
(§1)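 Cells were seeded at 4,000 per well, grown 24 hr at 37° C./5% CO2, then exposed 24 hr to 3-fold dilutions from 20 μM to 1.02 nM (0.5% DMSO final). Viability was read with CellTiter-Glo luminescence, and IC50 values were calculated.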
For orientation: In ATP-based viability assays light output follows the ATP content of the culture.

For assay [2], the system named is SW1990. Nature of the assay: CellTiter-Glo Reagent cancer cell line proliferation assay, SW1990. Type of assay: cell-based. Particulars: Homo sapiens; SW1990, KRAS(G12D) homozygous, 24 hr. The source says: (§2) The following cancer cell lines were employed: • AsPC-1 human pancreatic adenocarcinoma, homozygous KRAS(G12D), (ATCC, #CRL-1682); A-427 human lung carcinoma, heterozygous KRAS(G12D), (ATCC, #HTB-53); AGS human gastric adenocarcinoma, heterozygous KRAS(G12D), (ATCC, #CRL-1739); GP2D human colon adenocarcinoma, heterozygous KRAS(G12D), (Sigma Aldrich, 95090714); SW1990 human pancreatic adenocarcinoma, homozygous KRAS(G12D), (ATCC, #CRL2172); LU65A human lung giant cell carcinoma, heterozygous KRAS(G12C), (JCRB Cell Bank, #JCRB0054); NCIH727 human lung carcinoid, heterozygous KRAS(G12V), (ATCC, #CRL-5815); MKN1 human gastric adenosquamous carcinoma KRAS (wt), (JCRB Cell Bank, #JCRB0252). Cell lines were cultured according to ATCC, JCRB and Sigma Aldrich recommendations.
(§3) Cells were plated in 96-well tissue culture plates at 4,000 cells/well and incubated at 37° C./5% CO2 for 24 hr in 100 μl of media. 3-fold serial dilutions of each test compound were prepared ranging from 20 μM to 1.02 nM. Cells were then treated with test compounds at various concentrations with a final concentration of 0.5% DMSO/well, and then incubated at 37° C./5% CO2 for 24 hr. 100 μl of CellTiter-Glo® Reagent (Promega Corporation, Madison, WI) was added to each well and processed according manufacturer's protocol. Results were analyzed and IC50-values were calculated in GraphPad 7 software.

Assay [3] relates to GP2D. Nature of the assay: CellTiter-Glo Reagent cancer cell line proliferation assay, GP2D. Type of assay: cell-based. Particulars: Homo sapiens, KRAS(G12D) heterozygous, 24 hr.
Description: as §2, §3

The target in assay [4] is KRAS(G12D) (Homo sapiens, UniProt P01116, G12D). Nature of the assay: cell-based. Particulars: for Dmax: SW1990, read-out: WB data SW1990 DMax; for DC50: read-out: WB data SW1990 DC50, SW1990, KRAS degradation, 24 hr. The format is cell-based. Also on record: Cell lines SW1990 and GP2D that express KRAS(G12D); host or cells: SW1990. The procedure:
Cell lines were cultured according to ATCC, JCRB and Sigma Aldrich recommendations.
(§4) Cells were then washed with cold PBS, aspirated and cold RIPA buffer containing a protease/phosphatase inhibitor cocktail was added to lyse cells. After centrifugation, the total protein concentrations of cell lysates were determined using the BCA protein assay. Samples were normalized for equivalent protein concentrations, 5× SDS-PAGE loading buffer added and denatured at 100° C. for 10 min. 20 μl of each sample/well was loaded on a SDS-PAGE gel and electrophoresed for 20 min at 80 V, then 120 V for 1.5 hr. Gels were then electroblotted to nitrocellulose membranes using a wet-transfer method at 250 mA for 2.5 hr. Membranes were incubated with blocking buffer for 1 hr and washed 3 times with TBST for 5 min. Membranes were then incubated with anti-KRAS (Sigma-Aldrich, #SAB1404011) and anti-β-Actin monoclonal antibodies (Cell Signaling Technology, #3700) diluted in blocking buffer at 4° C. overnight per the manufacturer's recommendations. After washing 3 times, blots were incubated with appropriately labeled secondary antibodies for 1 hr at room temperature and washed again. Fluorescence imaging and quantitation was performed using a LI-COR Odyssey. Results was analyzed using GraphPad Prism 7 software. Compound concentrations that induced KRAS degradation (DC50 and DCmax) were calculated using GraphPad Prism 7 software.

Assay [5] relates to LU65A. Nature of the assay: CellTiter-Glo Reagent cancer cell line proliferation assay, LU65A. Type of assay: cell-based, human. Particulars: Homo sapiens, 24 h, KRAS(G12C) heterozygous. The method, boiled down:
as §1

Assay [6] relates to NCIH727. The assay can be described thus: CellTiter-Glo Reagent cancer cell line proliferation assay, NCIH727. The format is cell-based, human. Particulars: Homo sapiens, NCI-H727, 24 h, NCIH727, KRAS(G12V) heterozygous. The method, boiled down:
as §1

Assay [7] concerns MKN1. The assay can be described thus: CellTiter-Glo Reagent cancer cell line proliferation assay, MKN1. The format is cell-based. The note with it: Homo sapiens, MKN-1; MKN1, KRAS (wt), 24 hr.
Description: as §2, §3

Assay [8] addresses T1, KRAS(G12C) (Homo sapiens, UniProt P01116, G12C).
T1 construct: LU65A that expresses KRAS(G12C); host or cells: LU65A
The assay can be described thus: KRAS Western Blot Protein Degradation Assay, LU65A. The format is cell-based. The note with it: 24 hr; for DC50: read-out: WB data LU65A DC50; for Dmax: read-out: WB data LU65A DMax.
Description: as §2
as §4, with “Cell lines SW1990 and GP2D that express KRAS(G12D), LU65A that expresses KRAS(G12C), and NCIH727 that expresses KRAS(G12V) were seeded in 6- or 12-well tissue culture plates, and after 1 hr, test compounds were added at various concentrations and incubated at 37° C./5% CO2 for 24 hr. Cells” for “Cells”
In general terms: In western blotting, separated proteins are transferred to a membrane and probed.

The target in assay [9] is T2, KRAS(G12V) (Homo sapiens, UniProt P01116, G12V).
T2 construct: anti-KRAS Western blot degradation by PROTACs recruiting CRBN or VHL
T2 sequence (P01116 1-188 isoform P01116-2 G12V): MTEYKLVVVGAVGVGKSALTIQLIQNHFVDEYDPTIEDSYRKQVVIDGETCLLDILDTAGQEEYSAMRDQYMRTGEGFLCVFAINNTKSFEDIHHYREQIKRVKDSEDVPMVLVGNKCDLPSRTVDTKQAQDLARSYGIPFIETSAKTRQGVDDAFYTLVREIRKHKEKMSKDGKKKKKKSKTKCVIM
Nature of the assay: KRAS Western Blot Protein Degradation Assay, NCIH727. The format is cell-based. Particulars: for DC50: 24 hr, read-out: WB data NCIH727 DC50; for Dmax: NCI-H727, 24 hr, read-out: WB data NCIH727 DMax.
Description: as §2
as §4, with “Cell lines SW1990 and GP2D that express KRAS(G12D), LU65A that expresses KRAS(G12C), and NCIH727 that expresses KRAS(G12V) were seeded in 6- or 12-well tissue culture plates, and after 1 hr, test compounds were added at various concentrations and incubated at 37° C./5% CO2 for 24 hr. Cells” for “Cells”

Structures can show the parent of a compound that is named as a salt.

T1 sequence (P01116 1-185 isoform P01116-2 G12C limits assumed): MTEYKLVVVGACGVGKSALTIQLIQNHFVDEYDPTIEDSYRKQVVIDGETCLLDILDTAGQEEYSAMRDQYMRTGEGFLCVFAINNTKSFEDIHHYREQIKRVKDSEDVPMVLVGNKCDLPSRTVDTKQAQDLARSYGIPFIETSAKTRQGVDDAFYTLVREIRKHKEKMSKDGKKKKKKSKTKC
Chain of KRAS(G12D) (P01116 1-188 isoform P01116-2 G12D): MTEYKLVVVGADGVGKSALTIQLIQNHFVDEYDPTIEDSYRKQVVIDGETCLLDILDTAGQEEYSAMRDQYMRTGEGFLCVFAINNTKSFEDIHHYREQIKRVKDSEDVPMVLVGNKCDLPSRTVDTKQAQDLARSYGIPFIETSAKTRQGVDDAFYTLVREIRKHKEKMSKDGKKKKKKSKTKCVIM

Take `C#Cc1c(F)ccc2cc(O)cc(-c3ncc4c(N5C[C@H]6CC[C@@H](C5)N6)nc(OCC5(CN6CC(C#Cc7ccc8c(c7)CN(C7CCC(=O)NC7=O)C8=O)C6)CC5)nc4c3F)c12` (stereo partly drawn) [Compound 90, 3-(5-((1-((1-(((4-((1R,5S)-3,8-diazabicyclo[3.2.1]octan-3-yl)-7-(8-ethynyl-7-fluoro-3-hydroxynaphthalen-1-yl)-8-fluoropyrido[4,3-d]pyrimidin-2-yl)oxy)methyl)cyclopropyl)methyl)azetidin-3-yl)ethynyl)-1-oxoisoindolin-2-yl) piperidine-2,6-dione formate]: the IC50 in assay [1], in [2] and in assay [3] was less than 100 nM in each case. Further, the Dmax in assay [4] is 10 to 50%. Besides, the DC50 (usually the concentration giving 50% degradation) in assay [4] was greater than 1000 nM.
Regarding `C#Cc1c(F)ccc2cc(O)cc(-c3ncc4c(N5CC6CCC(C5)N6C(=O)C(F)(F)F)nc(OCC5(CN6CCN(CC7CCN(c8ccc9c(c8)CN(C8CCC(=O)NC8=O)C9=O)CC7)CC6)CC5)nc4c3F)c12` (stereo not drawn) [Compound 78], in [2], the IC50 (in general, the concentration that inhibits the measured activity by half) was less than 100 nM. In addition, in [4], the Dmax fell in the range of 10 to 50% and the DC50 lay in the range of 100 to 1000 nM.
As for `C#Cc1c(F)ccc2cc(O)cc(-c3ncc4c(N5CC6CCC(C5)N6)nc(OCC5(CN6CCN(CC#Cc7ccc8c(c7)CN(C7CCC(=O)NC7=O)C8=O)CC6)CC5)nc4c3F)c12` (stereo not drawn) [Compound 89], the IC50 in [1] is less than 100 nM; in [2] it was 100 to 1000 nM; in [3], less than 100 nM. Moreover, the Dmax in [4] lay within 10 to 50%. Besides, the DC50 in assay [4] was greater than 1000 nM.
Consider `C#Cc1c(F)ccc2cc(O)cc(-c3ncc4c(N5CC6CCC(C5)N6)nc(OCC5(CN6CCN(CC7CCN(c8ccc9c(=O)n(C%10CCC(=O)NC%10=O)ncc9c8)CC7)CC6)CC5)nc4c3F)c12` (stereo not drawn) [Compound 88], for which the IC50 in assay [1], in assay [2] and in [3] was less than 100 nM in each case. In addition, in [4], the Dmax is 10 to 50%. In addition, the DC50 in assay [4] is greater than 1000 nM.
For the molecule `O=CO.[2H]C([2H])([2H])Oc1nc(-c2cc(O)cc3ccc(F)c(C#C)c23)c(F)c2nc(OCC3(CN4CCN(CC5CCN(c6ccc7c(c6)CN(C6CCC(=O)NC6=O)C7=O)CC5)CC4)CC3)nc(N3CC4CCC(C3)N4C(=O)CCC#N)c12` (stereo not drawn) [Compound 114], the IC50 in assay [1] is less than 100 nM; in assay [3] it was less than 100 nM; in assay [5], less than 100 nM; in assay [6], less than 100 nM; in assay [7], 100 to 1000 nM. Moreover, the DC50 in assay [8] and in assay [9] was less than 100 nM each time. Moreover, the Dmax in assay [8] and in assay [9] was greater than 50% each time.
Consider `C#Cc1c(F)ccc2cc(O)cc(-c3nc(OC)c4c(N5CC6CCC(C5)N6C(=O)CC#N)nc(OCC5(CN6CCN(CC7CCN(c8ccc9c(c8)CN(C8CCC(=O)NC8=O)C9=O)CC7)CC6)CC5)nc4c3F)c12` (stereo not drawn) [Compound 102], for which the IC50 in assay [1] was greater than 1000 nM; in assay [3] it was 100 to 1000 nM; in assay [5], 100 to 1000 nM; in assay [6] it was 100 to 1000 nM; in assay [7], 100 to 1000 nM. Besides, the DC50 in [8] is greater than 1000 nM; in assay [9], less than 100 nM. In addition, the Dmax is 10 to 50% in assay [8] and greater than 50% in assay [9].
Consider `C#Cc1c(F)ccc2cc(O)cc(-c3ncc4c(N5CC6CCC(C5)N6)nc(OCC5(CN6CCC(C#Cc7ccc8c(c7)CN(C7CCC(=O)NC7=O)C8=O)CC6)CC5)nc4c3F)c12` (stereo not drawn) [Compound 91], for which the figures for the IC50 in assay [1], in assay [2] and in assay [3] were less than 100 nM, 100 to 1000 nM and less than 100 nM, respectively.
As for `C#Cc1c(F)ccc2cc(O)cc(-c3ncc4c(N5C[C@H]6CC[C@@H](C5)N6)nc(OCC5(CN(C)Cc6ccc(C7CN(c8ccc9c(c8)CN(C8CCC(=O)NC8=O)C9=O)C7)cc6)CC5)nc4c3F)c12` (stereo partly drawn) [Compound 92, 3-(5-(3-(4-((((1-(((4-((1R,5S)-3,8-diazabicyclo[3.2.1]octan-3-yl)-7-(8-ethynyl-7-fluoro-3-hydroxynaphthalen-1-yl)-8-fluoropyrido[4,3-d]pyrimidin-2-yl)oxy)methyl)cyclopropyl)methyl)(methyl)amino)methyl)phenyl)azetidin-1-yl)-1-oxoisoindolin-2-yl) piperidine-2,6-dione formate], the IC50 in [1], in assay [2] and in assay [3] was less than 100 nM each time.
As for `C#Cc1c(F)ccc2cc(O)cc(-c3ncc4c(N5CC6CCC(C5)N6C(=O)C5(C#N)CC5)nc(OCC5(CN6CCN(CC7CCN(c8ccc9c(c8)CN(C8CCC(=O)NC8=O)C9=O)CC7)CC6)CC5)nc4c3F)c12` (stereo not drawn) [Compound 107], the IC50 is greater than 1000 nM in assay [1]; 100 to 1000 nM in [3]; 100 to 1000 nM in assay [5]; greater than 1000 nM in [6]; 100 to 1000 nM in [7]. The DC50 in assay [8] was 100 to 1000 nM; in assay [9], less than 100 nM. In addition, the Dmax in assay [8] and in [9] was greater than 50% in each case.
Consider `C#Cc1c(F)ccc2cc(O)cc(-c3ncc4c(N5CC6CCC(C5)N6C(=O)C(C)(C)C#N)nc(OCC5(CN6CCN(CC7CCN(c8ccc9c(c8)CN(C8CCC(=O)NC8=O)C9=O)CC7)CC6)CC5)nc4c3F)c12` (stereo not drawn) [Compound 106], for which the IC50 is greater than 1000 nM in [1]; 100 to 1000 nM in assay [3]; greater than 1000 nM in assay [5]; greater than 1000 nM in [6]; less than 100 nM in [7]. Also, the DC50 in assay [8] and in assay [9] was greater than 1000 nM in each case. Besides, the Dmax in assay [8] and in assay [9] was 10 to 50% each time.
